Experimental data published in article PMC11451967 (2024).

Key:
Experiment in all cases: fluorescence turn-on, 625 nm
[1] = system: dsDNAmix (DNA, duplex) CGATAAGCGCTTATCGAGTCGACTCGATAAGCGCTTATCG; settings: BPC1 1 μM, oligonucleotide 4 μM; significant fluorescence enhancement
[2] = system: ssDNAmix (DNA, single strand) ATGCTCAGACTGTCAGAGTC; settings: BPC1 1 μM, oligonucleotide 4 μM; weak fluorescence enhancement
[3] = system: NC (RNA, single strand) UUGUACUACACAAAAGUACUG; settings: BPC1 1 μM, oligonucleotide 4 μM; no fluorescence increase
[4] = system: ssRNAmix (RNA, single strand) AUGUACCUAGUCUGACCUAG; settings: BPC1 1 μM, oligonucleotide 4 μM; no fluorescence increase

CC[n+]1c(/C=C/C=C2C=CN(c3ccccc3)C=C2)sc2ccccc21
binding [1]: yes | binding [2]: weak | binding [3]: no | binding [4]: no
